Measurements published in patent publication US6358885B1, “Substituted phenylheterocyclic herbicides” (Mississippi State University, priority 1992, dated 2002).

Key:
umbrella sedge = assay: Test C flood test plant response rating 0 to 100; assay type: in vivo, Cyperus difformis; settings: for Plant response rating Umbrella sedge: flood test species listed under POSTEMERGENCE, 0 to 100 scale
Summary of the method: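 Compounds in non-phytotoxic solvent applied preemergence to sandy loam one day after planting, postemergence at the 1–4 leaf stage, or to ~2.5 cm floodwater over silt loam.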

ryegrass = assay: Test C preemergence/postemergence greenhouse plant response rating 0 to 100; assay type: in vivo, Lolium multiflorum; settings: POSTEMERGENCE; for Plant response rating Ryegrass: 0 to 100 scale
Summary of the method: (§1)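 Compounds in non-phytotoxic solvent went onto sandy loam before emergence (seeded one day earlier) or onto plants at the one-to-four leaf stage. Duck salad was treated via flood water (~2.5 cm, maintained) over silt loam.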

corn = assay: as above; assay type: in vivo, Zea mays; settings: POSTEMERGENCE; for Plant response rating, Corn: 0 to 100 scale
Summary of the method: as §1

downy brome = assay: as above; assay type: in vivo, Bromus tectorum; settings: POSTEMERGENCE; for Plant response rating Downy Brome: 0 to 100 scale
Summary of the method: as §1

rape = assay: Test B preemergence/postemergence greenhouse plant response rating 0 to 10; assay type: in vivo, Brassica napus; settings: 0 to 10 scale
Summary of the method: (§2)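 Postemergence treatment of plants two to eighteen cm tall ran alongside preemergence treatment of planted seed, each using compound in a non-phytotoxic solvent.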

chickweed = assay: as above; assay type: in vivo, Stellaria media; settings: for Plant response rating, Chickweed: 0 to 10 scale
Summary of the method: as §2

wild oat = assay: Test C preemergence/postemergence greenhouse plant response rating 0 to 100; assay type: in vivo, Avena fatua; settings: POSTEMERGENCE; for Plant response rating, Wild oat: 0 to 100 scale
Summary of the method: as §1

barnyardgrass = assay: Test B preemergence/postemergence greenhouse plant response rating 0 to 10; assay type: in vivo, Echinochloa crus-galli; settings: for Plant response rating, Barnyardgrass: 0 to 10 scale
Summary of the method: as §2

wild buckwheat = assay: as above; assay type: in vivo, Polygonum convolvulus; settings: 0 to 10 scale
Summary of the method: as §2

smooth crabgrass = assay: Test G preemergence/postemergence greenhouse plant response rating 0 to 100; assay type: in vivo, Digitaria ischaemum; settings: 0 to 100 scale
Source text: Seeds, rhizomes, or plant parts of alfalfa (Medicago ativa), annual bluegrass (Poa annua), bermudagrass (Cynodon dactylon), broadleaf signalgrass (Brachiaria plantaginea), common purslane (Portulaca oleracea), common ragweed (Ambrosia elatior), […] (Paspalum dilatatum), goosegrass (Eleusine indica), guineagrass (Panicum maximum), […] exaltata), johnsongrass (Sorghum halepense), large crabgrass (Digitaria sanguinalis), peanut (Arachis hypoagaea), pitted morningglory (Ipomoea lacunosa), purple nutsedge (Cyperus rotundus), sandbur (Cenchrus echinatus), smooth crabgrass (Digitaria ischaemum) and yellow nutsedge (Cyperus esculentus) were planted into greenhouse pots containing greenhouse planting medium. Each pot contained only one plant species. The test compound was dissolved in a non-phytotoxic solvent and applied preemergence and/or postemergence to the plants. Preemergence applications were made within one day of planting the seeds or plant parts. Postemergence applications were applied when the plants were in the two to four leaf stage (three to twenty cm). Test chemicals were dissolved in a non-phytotoxic solvent and applied preemergence and postemergence to the plants. Untreated control plants and treated plants were placed in the greenhouse and visually evaluated for injury at 13 to 21 days after herbicide application. […] A dash (-) response indicates no test result.

bedstraw = assay: Test C preemergence/postemergence greenhouse plant response rating 0 to 100; assay type: in vivo, Galium aparine; settings: POSTEMERGENCE; for Plant response rating, Bedstraw: 0 to 100 scale
Summary of the method: as §1

sugar beet = assay: as above; assay type: in vivo, Beta vulgaris; settings: POSTEMERGENCE; for Plant response rating, Sugar beet: 0 to 100 scale
Summary of the method: as §1

crabgrass = assay: as above; assay type: in vivo, Digitaria sanguinalis; settings: POSTEMERGENCE; for Plant response rating, Crabgrass: 0 to 100 scale
Summary of the method: as §1

[1] = POSTEMERGENCE section, flood test, Rate 4 g/ha
[2] = Rate 16 g/ha, under POSTEMERGENCE head (flood test species)

For `CC(C)COc1cc(-c2nn3c(c2Cl)CCCC3)c(F)cc1Cl` [Compound 30], the “Plant response rating (0 to 100), Umbrella sedge” value (umbrella sedge; [1]) was 10, the “Plant response rating (0 to 100), Umbrella sedge” value (umbrella sedge; [2]) was 25 and the “Plant response rating Umbrella sedge” value (umbrella sedge; 62 g/ha) was 30. For the same compound, the “Plant response rating Umbrella sedge” value (umbrella sedge; 250 g/ha) was 80, the “Plant response rating Ryegrass” value (ryegrass; 62 g/ha) was 60 and the “Plant response rating Ryegrass” value (ryegrass; 250 g/ha) was 80. For the same compound, the “Plant response rating (0 to 100), Ryegrass” value (ryegrass; Rate 4 g/ha) was 20, the “Plant response rating (0 to 100), Ryegrass” value (ryegrass; Rate 16 g/ha) was 40 and the “Plant response rating, Corn” value (corn; 62 g/ha) was 30. The “Plant response rating, Corn” value (corn; 250 g/ha) was 40, the “Plant response rating (0 to 100), Corn” value (corn; Rate 4 g/ha) was 20 and the “Plant response rating (0 to 100), Corn” value (corn; Rate 16 g/ha) was 20. For the same compound, the “Plant response rating Downy Brome” value (downy brome; 62 g/ha) was 60, the “Plant response rating Downy Brome” value (downy brome; 250 g/ha) was 90 and the “Plant response rating (0 to 100), Downy Brome” value (downy brome; Rate 4 g/ha) was 20. The “Plant response rating (0 to 100), Downy Brome” value (downy brome; Rate 16 g/ha) was 40, the “Plant response rating, Rape” value (rape; POSTEMERGENCE, Rate 50 g/ha) was 5 and the “Plant response rating, Rape” value (rape; PREEMERGENCE, Rate 50 g/ha) was 0. The “Plant response rating, Rape” value (rape; Rate 200 g/ha, POSTEMERGENCE) was 9, the “Plant response rating, Rape” value (rape; Rate 200 g/ha, PREEMERGENCE) was 3 and the “Plant response rating (0 to 10 scale), Chickweed” value (chickweed; POSTEMERGENCE, Rate 50 g/ha) was 5. For the same compound, the “Plant response rating, Chickweed” value (chickweed; POSTEMERGENCE, Rate 200 g/ha) was 8, the “Plant response rating, Chickweed” value (chickweed; PREEMERGENCE, Rate 50 g/ha) was 0 and the “Plant response rating, Chickweed” value (chickweed; Rate 200 g/ha, PREEMERGENCE) was 3. The “Plant response rating, Wild oat” value (wild oat; 62 g/ha) was 60, the “Plant response rating, Wild oat” value (wild oat; 250 g/ha) was 80 and the “Plant response rating (0 to 100), Wild oat” value (wild oat; Rate 4 g/ha) was 20. For the same compound, the “Plant response rating (0 to 100), Wild oat” value (wild oat; Rate 16 g/ha) was 40, the “Plant response rating (0 to 10 scale), Barnyardgrass” value (barnyardgrass; POSTEMERGENCE, Rate 50 g/ha) was 6 and the “Plant response rating, Barnyardgrass” value (barnyardgrass; POSTEMERGENCE, Rate 200 g/ha) was 10. The “Plant response rating, Barnyardgrass” value (barnyardgrass; PREEMERGENCE, Rate 50 g/ha) was 2, the “Plant response rating, Barnyardgrass” value (barnyardgrass; Rate 200 g/ha, PREEMERGENCE) was 6 and the “Plant response rating, Wild buckwheat” value (wild buckwheat; POSTEMERGENCE, Rate 50 g/ha) was 10. For the same compound, the “Plant response rating, Wild buckwheat” value (wild buckwheat; PREEMERGENCE, Rate 50 g/ha) was 0, the “Plant response rating, Wild buckwheat” value (wild buckwheat; Rate 200 g/ha, POSTEMERGENCE) was 10 and the “Plant response rating, Wild buckwheat” value (wild buckwheat; Rate 200 g/ha, PREEMERGENCE) was 6. For the same compound, the “Plant response rating, Smooth Crabgras” value (smooth crabgrass; POSTEMERGENCE, Rate 125 g/ha) was 0, the “Plant response rating, Smooth Crabgras” value (smooth crabgrass; POSTEMERGENCE, Rate 250 g/ha) was 0 and the “Plant response rating, Smooth Crabgras” value (smooth crabgrass; PREEMERGENCE, Rate 125 g/ha) was 0. For the same compound, the “Plant response rating, Smooth Crabgras” value (smooth crabgrass; PREEMERGENCE, Rate 250 g/ha) was 0, the “Plant response rating, Bedstraw” value (bedstraw; 62 g/ha) was 100 and the “Plant response rating, Bedstraw” value (bedstraw; 250 g/ha) was 100. The “Plant response rating (0 to 100), Bedstraw” value (bedstraw; Rate 4 g/ha) was 50, the “Plant response rating (0 to 100), Bedstraw” value (bedstraw; Rate 16 g/ha) was 70 and the “Plant response rating, Sugar beet” value (sugar beet; 62 g/ha) was 100. For the same compound, the “Plant response rating, Sugar beet” value (sugar beet; 250 g/ha) was 100, the “Plant response rating (0 to 100), Sugar beet” value (sugar beet; Rate 4 g/ha) was 80 and the “Plant response rating (0 to 100), Sugar beet” value (sugar beet; Rate 16 g/ha) was 100. The “Plant response rating, Crabgrass” value (crabgrass; 62 g/ha) was 0, the “Plant response rating, Crabgrass” value (crabgrass; 250 g/ha) was 20 and the “Plant response rating (0 to 100), Crabgrass” value (crabgrass; Rate 4 g/ha) was 0. For the same compound, the “Plant response rating (0 to 100), Crabgrass” value (crabgrass; Rate 16 g/ha) was 0.

For `CCCN1C(=O)COc2cc(F)c(-c3nn4c(c3Cl)CCCC4)cc21` [Compound 32], the “Plant response rating (0 to 100), Umbrella sedge” value (umbrella sedge; POSTEMERGENCE section, flood test, Rate 1 g/ha) was 0, the “Plant response rating (0 to 100), Umbrella sedge” value (umbrella sedge; [1]) was 0 and the “Plant response rating (0 to 100), Umbrella sedge” value (umbrella sedge; [2]) was 20. The “Plant response rating Umbrella sedge” value (umbrella sedge; 62 g/ha) was 60, the “Plant response rating Ryegrass” value (ryegrass; 62 g/ha) was 40 and the “Plant response rating (0 to 100), Ryegrass” value (ryegrass; Rate 1 g/ha) was 10. For the same compound, the “Plant response rating (0 to 100), Ryegrass” value (ryegrass; Rate 4 g/ha) was 20, the “Plant response rating (0 to 100), Ryegrass” value (ryegrass; Rate 16 g/ha) was 30 and the “Plant response rating, Corn” value (corn; 62 g/ha) was 50. For the same compound, the “Plant response rating (0 to 100), Corn” value (corn; Rate 1 g/ha) was 20, the “Plant response rating (0 to 100), Corn” value (corn; Rate 4 g/ha) was 30 and the “Plant response rating (0 to 100), Corn” value (corn; Rate 16 g/ha) was 40. For the same compound, the “Plant response rating Downy Brome” value (downy brome; 62 g/ha) was 50, the “Plant response rating (0 to 100), Downy Brome” value (downy brome; Rate 1 g/ha) was 20 and the “Plant response rating (0 to 100), Downy Brome” value (downy brome; Rate 4 g/ha) was 30. The “Plant response rating (0 to 100), Downy Brome” value (downy brome; Rate 16 g/ha) was 40, the “Plant response rating, Rape” value (rape; POSTEMERGENCE, Rate 10 g/ha) was 6 and the “Plant response rating, Rape” value (rape; POSTEMERGENCE, Rate 50 g/ha) was 10. The “Plant response rating, Rape” value (rape; PREEMERGENCE, Rate 50 g/ha) was 2, the “Plant response rating, Chickweed” value (chickweed; POSTEMERGENCE, Rate 10 g/ha) was 10 and the “Plant response rating, Chickweed” value (chickweed; PREEMERGENCE, Rate 10 g/ha) was 0. The “Plant response rating, Wild oat” value (wild oat; 62 g/ha) was 50, the “Plant response rating (0 to 100), Wild oat” value (wild oat; Rate 1 g/ha) was 20 and the “Plant response rating (0 to 100), Wild oat” value (wild oat; Rate 4 g/ha) was 30. The “Plant response rating (0 to 100), Wild oat” value (wild oat; Rate 16 g/ha) was 30, the “Plant response rating, Barnyardgrass” value (barnyardgrass; POSTEMERGENCE, Rate 10 g/ha) was 3 and the “Plant response rating (0 to 10 scale), Barnyardgrass” value (barnyardgrass; POSTEMERGENCE, Rate 50 g/ha) was 5. For the same compound, the “Plant response rating, Barnyardgrass” value (barnyardgrass; PREEMERGENCE, Rate 10 g/ha) was 0, the “Plant response rating, Barnyardgrass” value (barnyardgrass; PREEMERGENCE, Rate 50 g/ha) was 1 and the “Plant response rating, Wild buckwheat” value (wild buckwheat; POSTEMERGENCE, Rate 10 g/ha) was 9. For the same compound, the “Plant response rating, Wild buckwheat” value (wild buckwheat; POSTEMERGENCE, Rate 50 g/ha) was 10, the “Plant response rating, Wild buckwheat” value (wild buckwheat; PREEMERGENCE, Rate 50 g/ha) was 8 and the “Plant response rating, Smooth Crabgras” value (smooth crabgrass; POSTEMERGENCE, Rate 125 g/ha) was 0. The “Plant response rating, Smooth Crabgras” value (smooth crabgrass; POSTEMERGENCE, Rate 250 g/ha) was 0, the “Plant response rating, Smooth Crabgras” value (smooth crabgrass; PREEMERGENCE, Rate 125 g/ha) was 0 and the “Plant response rating, Smooth Crabgras” value (smooth crabgrass; PREEMERGENCE, Rate 250 g/ha) was 0. The “Plant response rating, Bedstraw” value (bedstraw; 62 g/ha) was 100, the “Plant response rating (0 to 100), Bedstraw” value (bedstraw; Rate 1 g/ha) was 85 and the “Plant response rating (0 to 100), Bedstraw” value (bedstraw; Rate 4 g/ha) was 90. The “Plant response rating (0 to 100), Bedstraw” value (bedstraw; Rate 16 g/ha) was 100, the “Plant response rating, Sugar beet” value (sugar beet; 62 g/ha) was 100 and the “Plant response rating (0 to 100), Sugar beet” value (sugar beet; Rate 1 g/ha) was 80. The “Plant response rating (0 to 100), Sugar beet” value (sugar beet; Rate 4 g/ha) was 100, the “Plant response rating (0 to 100), Sugar beet” value (sugar beet; Rate 16 g/ha) was 100 and the “Plant response rating, Crabgrass” value (crabgrass; 62 g/ha) was 40. The “Plant response rating (0 to 100), Crabgrass” value (crabgrass; Rate 1 g/ha) was 10, the “Plant response rating (0 to 100), Crabgrass” value (crabgrass; Rate 4 g/ha) was 20 and the “Plant response rating (0 to 100), Crabgrass” value (crabgrass; Rate 16 g/ha) was 30.
